Results on one molecule are retold here after patent US6638979B1, “Imidamide derivatives” (Bayer Aktiengesellschaft, priority 1998, dated 2003).

SMILES strings stand for the structures.

One data set relates to Meloidogyne incognita. The data set is described as follows: Critical concentration test (soil treatment, lettuce root galls). It is filed as in vivo. The conditions noted are these: active compound concentration of 20 ppm in soil, greenhouse 25° C., evaluated after three weeks. The method, then: Critical Concentration Test [table] To produce a suitable preparation of active compound, 1 part by weight of active compound is mixed with the stated amount of solvent, the stated amount of emulsifier is added and the concentrate is diluted to the desired concentration. The preparation of active compound is intimately mixed with the soil which is contaminated with the test nematodes. The concentration of the active compound in the preparation is here virtually unimportant, only the amount of active compound per volume unit of soil, which is stated in ppm (=mg/l), is decisive. The treated soil is filled into pots, lettuce is sown in and the pots are kept at a greenhouse temperature of 25° C. After three weeks, the roots of the lettuces are examined for infestation by nematodes (root galls), and the efficacy of the active compound in % is determined. The efficacy is 100% when infestation is avoided completely and 0% when the infestation level is just as high as in the control plants in untreated, but equally infested, soil.

In turn, `CC(=NC#N)NC(C)c1ccc(Cl)cc1` (centres unmarked) [Preparation Example 1, [R]-N-cyano-N′-(4-chlorophenyl-eth-1-yl)-ethaneimidamide] showed a melting point of 125 °C. Further, in the data set with Meloidogyne incognita, the “kill (efficacy of the active compound in %)” value was found to be 100%.

As usually defined, the melting point is the temperature, or range, at which the solid turns liquid.
